# Assay results as given in patent US8785488B2 (Exelixis Patent Company LLC, priority 2009, dated 2014).
# What was measured:
# [1] = target: T1, human TGR5 (h-TGR5) (Homo sapiens, UniProt Q8TDU6); experiment: TGR5/CRE-Luciferiase Assay (HEK 293 hTGR5/CRE-Luc cells); assay type: cell-based; conditions: h-TGR5 CRE-Luc EC50, Table 1; read-out: CRE-Luc (EC50)
# T1 construct: expressed in transfected cells
# T1 sequence (Q8TDU6 1-330): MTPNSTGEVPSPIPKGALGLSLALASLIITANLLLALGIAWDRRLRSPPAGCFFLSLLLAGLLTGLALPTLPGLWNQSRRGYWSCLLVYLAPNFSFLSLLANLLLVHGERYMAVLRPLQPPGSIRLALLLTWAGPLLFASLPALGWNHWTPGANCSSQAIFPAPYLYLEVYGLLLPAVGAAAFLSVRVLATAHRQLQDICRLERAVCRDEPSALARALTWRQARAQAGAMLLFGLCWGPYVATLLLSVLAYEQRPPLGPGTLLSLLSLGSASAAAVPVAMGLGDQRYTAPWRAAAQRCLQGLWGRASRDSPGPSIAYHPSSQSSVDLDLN
# How it was run: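 HEK293 cells stably carrying hTGR5 and a CRE-luciferase reporter were exposed to serially diluted compounds (diluted in DMEM with 5% DMSO) for 6 h. Cells were then lysed in luciferase buffer, luminescence was read, and EC50 values were derived from dose-response curves.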
# [2] = target: T2, h-TGR5 (Homo sapiens, UniProt Q8TDU6); experiment: TGR5 cAMP Assay using Cisbio cAMP Dynamic2 htrf kit (hTGR5CRE-luc HEK 293 cells); assay type: cell-based; conditions: h-TGR5 cAMP EC50, Table 1; read-out: cAMP (EC50)
# T2 construct: expressed in transfected cells
# T2 sequence (Q8TDU6 1-330): T1 sequence (Q8TDU6 1-330)
# How it was run: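 […], 4000 hTGR5CRE-luc HEK 293 cells per well, with 0.5 mM IBMX and d2-cAMP, were incubated 30 min at room temperature with compounds in 8-point half-log series, in quadruplicate.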
SMILES,EC50 [1] [nM],EC50 [2] [nM]
"COc1cc(C(C)(C)c2cnc(SCc3c(F)ccc(S(N)(=O)=O)c3F)n2-c2ccc(F)cc2)ccc1Cl [3-({[5-{1-[4-chloro-3-(methyloxy)phenyl]-1-methylethyl}-1-(4-fluorophenyl)-1H-imidazol-2-yl]thio}methyl)-2,4-difluorobenzenesulfonamide]",< 100,< 100
"COc1cc(C(C)(C)c2cnc(SCc3c(F)cc(-c4noc(=O)[nH]4)cc3F)n2-c2ccc(F)cc2)ccc1Cl [3-[4-({[5-{1-[4-chloro-3-(methyloxy)phenyl]-1-methylethyl}-1-(4-fluorophenyl)-1H-imidazol-2-yl]thio}methyl)-3,5-difluorophenyl]-1,2,4-oxadiazol-5(4H)-one]",< 100,< 100
"CC(C)(c1ccc(Cl)c(Cl)c1)c1cnc(SCC2CCCN(c3nnn[nH]3)C2)n1-c1ccc(F)cc1 (centres unmarked) [3-[({5-[1-(3,4-dichlorophenyl)-1-methylethyl]-1-(4-fluorophenyl)-1H-imidazol-2-yl}thio)methyl]-1-(1H-tetrazol-5-yl)piperidine]",1000 to 10000,1000 to 10000
"CC(C)(c1ccc(Cl)c(Cl)c1)c1cnc(CCc2ccc(S(N)(=O)=O)cc2Cl)n1-c1ccc(F)cc1 [3-chloro-4-(2-{5-[1-(3,4-dichlorophenyl)-1-methylethyl]-1-(4-fluorophenyl)-1H-imidazol-2-yl}ethyl)benzenesulfonamide]",100 to 1000,1000 to 10000
COc1cc(C(C)(C)c2cnc(SCc3ccc(S(=O)(=O)NC(=O)NN4CCCC4)cc3Cl)n2-c2ccc(F)c(Cl)c2)ccc1Cl [3-chloro-4-({[1-(3-chloro-4-fluorophenyl)-5-{1-[4-chloro-3-(methyloxy)phenyl]-1-methylethyl}-1H-imidazol-2-yl]thio}methyl)-N-[(pyrrolidine-1-ylamino)carbonyl]benzenesulfonamide],< 100,100 to 1000
CC(C)(c1ccc(Cl)c(OCCCN2CCOCC2)c1)c1cnc(SCc2c(F)cc(C(=O)O)cc2Cl)n1-c1ccc(F)cc1 [3-chloro-4-({[5-(1-{4-chloro-3-[(3-morpholin-4-ylpropyl)oxy]phenyl}-1-methylethyl)-1-(4-fluorophenyl)-1H-imidazol-2-yl]thio}methyl)-5-fluorobenzoic acid],100 to 1000,100 to 1000
CC(C)NC(=O)NS(=O)(=O)c1ccc(CSc2ncc(C(C)(C)c3ccc(F)c(C(F)F)c3)n2-c2ccc(F)cc2)c(Cl)c1 [3-chloro-4-({[5-{1-[3-(difluoromethyl)-4-fluorophenyl]-1-methylethyl}-1-(4-fluorophenyl)-1H-imidazol-2-yl]thio}methyl)-N-{[(1-methylethyl)amino]carbonyl} benzenesulfonamide],100 to 1000,100 to 1000
COc1ccc(C(C)(C)c2cnc(SCc3ccc(S(=O)(=O)NC(=O)NN4CCCC4)cc3Cl)n2-c2ccc(F)c(C)c2)cc1Cl [3-chloro-4-({[5-{1-[3-chloro-4-(methyloxy)phenyl]-1-methylethyl}-1-(4-fluoro-3-methylphenyl)-1H-imidazol-2-yl]thio}methyl)-N-[(pyrrolidin-1-ylamino)carbonyl]benzenesulfonamide],100 to 1000,100 to 1000
COc1ccc(C(C)(C)c2cnc(SCc3c(F)cc(C(=O)O)cc3Cl)n2-c2ccc(F)cc2)cc1Cl [3-chloro-4-({[5-{1-[3-chloro-4-(methyloxy)phenyl]-1-methylethyl}-1-(4-fluorophenyl)-1H-imidazol-2-yl]thio}methyl)-5-fluorobenzoic acid],< 100,< 100
COc1ccc(C(C)(C)c2cnc(SCc3ccc(S(=O)(=O)NC(=O)NN4CCCC4)cc3Cl)n2-c2ccc(F)cc2)cc1Cl [3-chloro-4-({[5-{1-[3-chloro-4-(methyloxy)phenyl]-1-methylethyl}-1-(4-fluorophenyl)-1H-imidazol-2-yl]thio}methyl)-N-[(pyrrolidin-1-ylamino)carbonyl]benzenesulfonamide],100 to 1000,100 to 1000
COc1ccc(C(C)(C)c2cnc(SCc3ccc(S(=O)(=O)NC(=O)NC(C)C)cc3Cl)n2-c2ccc(F)cc2)cc1Cl [3-chloro-4-({[5-{1-[3-chloro-4-(methyloxy)phenyl]-1-methylethyl}-1-(4-fluorophenyl)-1H-imidazol-2-yl]thio}methyl)-N-{[(1-methylethyl)amino]carbonyl}benzenesulfonamide],100 to 1000,100 to 1000
COc1ccc(C(C)(C)c2cnc(SCc3ccc(S(N)(=O)=O)cc3Cl)n2-c2ccc(F)cc2)cc1Cl [3-chloro-4-({[5-{1-[3-chloro-4-(methyloxy)phenyl]-1-methylethyl}-1-(4-fluorophenyl)-1H-imidazol-2-yl]thio}methyl)benzenesulfonamide],< 100,< 100
CC(C)(c1ccc(C(F)F)c(F)c1)c1cnc(SCc2ccc(S(=O)(=O)NC(=O)NN3CCCC3)cc2Cl)n1-c1ccc(F)cc1 [3-chloro-4-({[5-{1-[4-(difluoromethyl)-3-fluorophenyl]-1-methylethyl}-1-(4-fluorophenyl)-1H-imidazol-2-yl]thio}methyl)-N-[(pyrrolidin-1-ylamino)carbonyl]benzenesulfonamide],100 to 1000,100 to 1000
CC(C)NC(=O)NS(=O)(=O)c1ccc(CSc2ncc(C(C)(C)c3ccc(C(F)F)c(F)c3)n2-c2ccc(F)cc2)c(Cl)c1 [3-chloro-4-({[5-{1-[4-(difluoromethyl)-3-fluorophenyl]-1-methylethyl}-1-(4-fluorophenyl)-1H-imidazol-2-yl]thio}methyl)-N-{[(1-methylethyl)amino]carbonyl} benzenesulfonamide],100 to 1000,100 to 1000
"COc1cc(C(C)(C)c2cnc(SCc3ccc(S(=O)(=O)NC(=O)NN4CCCC4)cc3Cl)n2-c2ccc(F)cc2F)ccc1Cl [3-chloro-4-({[5-{1-[4-chloro-3-(methyloxy)phenyl]-1-methylethyl}-1-(2,4-difluorophenyl)-1H-imidazol-2-yl]thio}methyl)-N-[(pyrrolidin-1-ylamino)carbonyl]benzenesulfonamide]",100 to 1000,100 to 1000
"COc1cc(C(C)(C)c2cnc(SCc3ccc(S(=O)(=O)NC(=O)NN4CCCC4)cc3Cl)n2-c2ccc(F)c(F)c2)ccc1Cl [3-chloro-4-({[5-{1-[4-chloro-3-(methyloxy)phenyl]-1-methylethyl}-1-(3,4-difluorophenyl)-1H-imidazol-2-yl]thio}methyl)-N-[(pyrrolidin-1-ylamino)carbonyl]benzenesulfonamide]",100 to 1000,100 to 1000
COc1cc(C(C)(C)c2cnc(SCc3ccc(S(=O)(=O)NC(=O)NN4CCCC4)cc3Cl)n2-c2ccc(F)c(C)c2)ccc1Cl [3-chloro-4-({[5-{1-[4-chloro-3-(methyloxy)phenyl]-1-methylethyl}-1-(4-fluoro-3-methylphenyl)-1H-imidazol-2-yl]thio}methyl)-N-[(pyrrolidin-1-ylamino)carbonyl]benzenesulfonamide],< 100,100 to 1000
COc1cc(C(C)(C)c2cnc(COc3c(F)cc(C(=O)O)cc3Cl)n2-c2ccc(F)cc2)ccc1Cl [3-chloro-4-({[5-{1-[4-chloro-3-(methyloxy)phenyl]-1-methylethyl}-1-(4-fluorophenyl)-1H-imidazol-2-yl]methyl}oxy)-5-fluorobenzoic acid],100 to 1000,100 to 1000
COc1cc(C(C)(C)c2cnc(SCc3c(F)cc(C(=O)Nc4nnn[nH]4)cc3Cl)n2-c2ccc(F)cc2)ccc1Cl [3-chloro-4-({[5-{1-[4-chloro-3-(methyloxy)phenyl]-1-methylethyl}-1-(4-fluorophenyl)-1H-imidazol-2-yl]thio}methyl)-5-fluoro-N-1H-tetrazol-5-ylbenzamide],< 100,< 100
"COCCOCCOCCOCCOCCOCCOCCOCCOCCOCCOCCOCCOCCOCCNS(=O)(=O)c1cc(F)c(CSc2ncc(C(C)(C)c3ccc(Cl)c(OC)c3)n2-c2ccc(F)cc2)c(Cl)c1 [3-chloro-4-({[5-{1-[4-chloro-3-(methyloxy)phenyl]-1-methylethyl}-1-(4-fluorophenyl)-1H-imidazol-2-yl]thio}methyl)-5-fluoro-N-3,6,9,12,15,18,21,24,27,30,33,36, 39,42-tetradecaoxatritetracont-1-ylbenzenesulfonamide]",< 100,< 100
COc1cc(C(C)(C)c2cnc(SCc3c(F)cc(C(=O)NC4CCN(c5nnn[nH]5)CC4)cc3Cl)n2-c2ccc(F)cc2)ccc1Cl [3-chloro-4-({[5-{1-[4-chloro-3-(methyloxy)phenyl]-1-methylethyl}-1-(4-fluorophenyl)-1H-imidazol-2-yl]thio}methyl)-5-fluoro-N-[1-(1H-tetrazol-5-yl)piperidin-4-yl]benzamide],< 100,< 100
COc1cc(C(C)(C)c2cnc(SCc3c(F)cc(N)cc3Cl)n2-c2ccc(F)cc2)ccc1Cl [3-chloro-4-({[5-{1-[4-chloro-3-(methyloxy)phenyl]-1-methylethyl}-1-(4-fluorophenyl)-1H-imidazol-2-yl]thio}methyl)-5-fluoroaniline],< 100,< 100
